Laboratory results taken from the supplement of paper PMC12463676, “Small-molecule dissolution of stress granules by redox modulation benefits ALS models” (Nature Chemical Biology, 2025).

Legend:
potassium arsenate = compound: O=[As]([O-])(O)O.[K+] [potassium arsenate]; test: thermal stability z-score vs DMSO; higher = more thermally stabilized by treatment; conditions: HeLa; arsenate concentration 1 mM
Experimental: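 Cellular thermal proteome profiling in HeLa cells treated with 1 mM arsenate for 1 h (DMSO pretreatment), heated to ten temperatures (37-66.3 °C). Soluble protein was quantified by TMT mass spectrometry relative to DMSO controls; the thermal stability score was transformed to a z-score; mean of n = 3 experiments.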

lipoamide = compound: NC(=O)CCCCC1CCSS1 [lipoamide]; test: as above; conditions: HeLa, lipoamide concentration 100 µM
Experimental: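 Cellular thermal proteome profiling in HeLa cells. Cells were treated with 100 µM lipoamide for 1 h, with or without 1 mM arsenate for a further 1 h, then heated to ten temperatures (37-66.3 °C), and soluble protein was quantified by TMT mass spectrometry relative to 0.1% DMSO controls. The thermal stability score (sum of log2 fold changes minus the abundance score) was transformed to a z-score; mean of n = 3 experiments.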

[1] = arsenate co-treatment: 1 mM arsenate 1 h
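Further: each temperature applied for 3 min, abundance score taken as mean log2 fold change at the two lowest temperatures, z-score obtained by mean subtraction and division by SD.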

Chain of UniProt Q9Y421 (Q9Y421 whole entry): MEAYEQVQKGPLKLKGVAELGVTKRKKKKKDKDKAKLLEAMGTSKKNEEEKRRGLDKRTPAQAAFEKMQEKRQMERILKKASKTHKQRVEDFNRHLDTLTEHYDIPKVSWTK
Chain of UniProt Q93096 (Q93096 whole entry): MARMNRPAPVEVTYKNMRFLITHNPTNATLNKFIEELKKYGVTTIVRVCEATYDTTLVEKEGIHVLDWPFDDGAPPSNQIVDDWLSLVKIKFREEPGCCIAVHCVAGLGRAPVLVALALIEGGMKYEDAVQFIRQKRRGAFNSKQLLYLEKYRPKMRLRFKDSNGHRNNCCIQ
Chain of UniProt Q2TAA5 (Q2TAA5 whole entry): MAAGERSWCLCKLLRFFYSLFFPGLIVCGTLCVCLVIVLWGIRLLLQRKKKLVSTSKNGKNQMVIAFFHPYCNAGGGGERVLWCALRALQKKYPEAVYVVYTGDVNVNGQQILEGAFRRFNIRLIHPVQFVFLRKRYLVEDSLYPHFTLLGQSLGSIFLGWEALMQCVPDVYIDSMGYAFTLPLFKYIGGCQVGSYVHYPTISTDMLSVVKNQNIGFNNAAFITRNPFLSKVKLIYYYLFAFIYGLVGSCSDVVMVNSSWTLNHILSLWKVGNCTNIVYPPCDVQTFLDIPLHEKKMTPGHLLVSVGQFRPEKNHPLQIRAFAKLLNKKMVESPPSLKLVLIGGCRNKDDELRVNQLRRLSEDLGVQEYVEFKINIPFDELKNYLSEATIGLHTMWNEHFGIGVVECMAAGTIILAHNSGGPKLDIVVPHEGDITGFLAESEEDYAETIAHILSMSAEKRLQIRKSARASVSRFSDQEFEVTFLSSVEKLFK
Chain of UniProt Q9NZC3 (Q9NZC3 whole entry): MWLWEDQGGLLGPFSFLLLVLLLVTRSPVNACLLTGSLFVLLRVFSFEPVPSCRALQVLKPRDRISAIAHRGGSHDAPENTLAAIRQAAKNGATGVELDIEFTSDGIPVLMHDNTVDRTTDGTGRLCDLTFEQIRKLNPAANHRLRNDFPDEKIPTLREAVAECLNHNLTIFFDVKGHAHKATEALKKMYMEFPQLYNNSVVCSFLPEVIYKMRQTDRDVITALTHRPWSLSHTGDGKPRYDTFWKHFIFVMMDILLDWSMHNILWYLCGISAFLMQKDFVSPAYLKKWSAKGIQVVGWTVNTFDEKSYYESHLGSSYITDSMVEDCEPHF
Chain of UniProt Q9ULK4 (Q9ULK4 whole entry): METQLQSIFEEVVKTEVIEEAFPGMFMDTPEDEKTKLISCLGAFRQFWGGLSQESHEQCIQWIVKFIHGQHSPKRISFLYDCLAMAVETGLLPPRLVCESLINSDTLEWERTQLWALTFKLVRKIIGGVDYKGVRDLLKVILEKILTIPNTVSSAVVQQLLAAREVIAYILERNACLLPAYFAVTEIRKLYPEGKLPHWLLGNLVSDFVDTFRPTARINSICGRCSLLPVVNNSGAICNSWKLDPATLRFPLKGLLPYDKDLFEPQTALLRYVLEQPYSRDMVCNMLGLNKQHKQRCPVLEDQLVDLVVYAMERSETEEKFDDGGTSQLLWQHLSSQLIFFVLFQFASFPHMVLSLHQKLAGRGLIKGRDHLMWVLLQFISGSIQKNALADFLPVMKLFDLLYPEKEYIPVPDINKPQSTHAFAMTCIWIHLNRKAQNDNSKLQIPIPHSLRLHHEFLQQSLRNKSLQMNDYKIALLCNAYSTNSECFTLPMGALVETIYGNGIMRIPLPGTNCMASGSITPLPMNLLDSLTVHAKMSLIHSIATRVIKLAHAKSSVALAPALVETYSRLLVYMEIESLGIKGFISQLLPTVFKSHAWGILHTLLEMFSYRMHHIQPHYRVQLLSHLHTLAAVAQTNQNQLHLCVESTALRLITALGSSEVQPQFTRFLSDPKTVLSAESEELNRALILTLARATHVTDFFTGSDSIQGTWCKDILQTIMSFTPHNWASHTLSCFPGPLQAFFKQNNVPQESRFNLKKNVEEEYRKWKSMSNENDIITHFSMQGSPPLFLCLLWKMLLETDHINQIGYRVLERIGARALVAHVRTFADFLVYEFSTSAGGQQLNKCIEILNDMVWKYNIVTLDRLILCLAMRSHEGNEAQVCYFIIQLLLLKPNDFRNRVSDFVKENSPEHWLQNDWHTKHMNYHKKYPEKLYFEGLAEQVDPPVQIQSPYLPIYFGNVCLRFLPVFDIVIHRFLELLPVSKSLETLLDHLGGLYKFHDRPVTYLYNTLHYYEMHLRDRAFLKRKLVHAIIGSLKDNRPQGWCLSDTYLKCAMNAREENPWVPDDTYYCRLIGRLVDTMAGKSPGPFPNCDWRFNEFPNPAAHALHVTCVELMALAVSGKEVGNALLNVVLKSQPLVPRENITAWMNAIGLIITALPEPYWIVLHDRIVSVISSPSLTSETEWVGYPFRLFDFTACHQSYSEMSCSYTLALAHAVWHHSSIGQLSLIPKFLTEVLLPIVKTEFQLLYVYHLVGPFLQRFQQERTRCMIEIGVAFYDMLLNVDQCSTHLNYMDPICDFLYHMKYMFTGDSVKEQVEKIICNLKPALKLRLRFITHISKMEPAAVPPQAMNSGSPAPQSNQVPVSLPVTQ
Chain of UniProt P13861 (P13861 whole entry): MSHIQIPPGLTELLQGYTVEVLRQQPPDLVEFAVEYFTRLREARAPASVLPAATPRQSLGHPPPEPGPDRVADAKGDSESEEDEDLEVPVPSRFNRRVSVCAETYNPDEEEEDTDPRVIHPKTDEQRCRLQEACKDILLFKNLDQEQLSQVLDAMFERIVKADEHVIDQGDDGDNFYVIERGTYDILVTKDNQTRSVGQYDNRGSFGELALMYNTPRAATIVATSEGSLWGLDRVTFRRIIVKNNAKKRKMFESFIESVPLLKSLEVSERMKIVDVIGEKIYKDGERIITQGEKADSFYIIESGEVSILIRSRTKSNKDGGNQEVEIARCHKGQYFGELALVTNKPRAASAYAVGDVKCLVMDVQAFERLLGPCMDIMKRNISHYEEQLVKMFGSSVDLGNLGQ
Chain of UniProt Q9UBW8 (Q9UBW8 whole entry): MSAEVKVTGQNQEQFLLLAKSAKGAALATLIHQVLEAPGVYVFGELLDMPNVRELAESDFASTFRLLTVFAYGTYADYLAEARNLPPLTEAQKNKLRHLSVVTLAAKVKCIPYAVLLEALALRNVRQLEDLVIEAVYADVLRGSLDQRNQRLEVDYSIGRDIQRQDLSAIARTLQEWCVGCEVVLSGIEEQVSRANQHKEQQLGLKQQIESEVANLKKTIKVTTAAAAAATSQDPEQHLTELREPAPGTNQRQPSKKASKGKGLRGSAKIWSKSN
Chain of UniProt P40818 (P40818 whole entry): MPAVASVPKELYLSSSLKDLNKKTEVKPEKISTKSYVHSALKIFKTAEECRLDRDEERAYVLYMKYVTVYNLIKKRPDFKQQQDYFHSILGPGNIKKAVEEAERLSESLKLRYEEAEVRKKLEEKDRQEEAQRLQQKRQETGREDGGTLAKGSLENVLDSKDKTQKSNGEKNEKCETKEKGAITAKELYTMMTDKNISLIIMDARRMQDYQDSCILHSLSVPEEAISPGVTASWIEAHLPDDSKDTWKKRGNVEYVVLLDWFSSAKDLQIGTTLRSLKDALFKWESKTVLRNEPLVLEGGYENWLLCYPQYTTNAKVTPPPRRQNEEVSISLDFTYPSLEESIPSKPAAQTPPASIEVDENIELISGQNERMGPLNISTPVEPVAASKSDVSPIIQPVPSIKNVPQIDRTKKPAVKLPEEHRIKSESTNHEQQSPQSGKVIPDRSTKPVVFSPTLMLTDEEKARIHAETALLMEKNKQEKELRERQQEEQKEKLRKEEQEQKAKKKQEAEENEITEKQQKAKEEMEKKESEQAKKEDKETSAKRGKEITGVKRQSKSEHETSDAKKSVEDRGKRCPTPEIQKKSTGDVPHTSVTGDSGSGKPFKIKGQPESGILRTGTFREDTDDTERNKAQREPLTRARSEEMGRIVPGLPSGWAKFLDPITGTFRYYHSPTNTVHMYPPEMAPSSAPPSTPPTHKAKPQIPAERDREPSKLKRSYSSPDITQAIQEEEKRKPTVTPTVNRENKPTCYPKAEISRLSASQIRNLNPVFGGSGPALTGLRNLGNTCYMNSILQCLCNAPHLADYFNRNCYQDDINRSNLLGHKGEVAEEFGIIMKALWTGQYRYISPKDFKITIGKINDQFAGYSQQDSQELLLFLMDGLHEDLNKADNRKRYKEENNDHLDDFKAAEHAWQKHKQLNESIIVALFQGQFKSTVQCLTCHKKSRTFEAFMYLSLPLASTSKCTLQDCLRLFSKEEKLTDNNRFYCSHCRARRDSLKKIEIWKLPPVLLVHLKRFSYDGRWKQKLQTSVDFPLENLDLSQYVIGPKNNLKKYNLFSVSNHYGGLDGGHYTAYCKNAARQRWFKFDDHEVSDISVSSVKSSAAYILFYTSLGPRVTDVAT
Chain of UniProt Q6ZRP7 (Q6ZRP7 whole entry): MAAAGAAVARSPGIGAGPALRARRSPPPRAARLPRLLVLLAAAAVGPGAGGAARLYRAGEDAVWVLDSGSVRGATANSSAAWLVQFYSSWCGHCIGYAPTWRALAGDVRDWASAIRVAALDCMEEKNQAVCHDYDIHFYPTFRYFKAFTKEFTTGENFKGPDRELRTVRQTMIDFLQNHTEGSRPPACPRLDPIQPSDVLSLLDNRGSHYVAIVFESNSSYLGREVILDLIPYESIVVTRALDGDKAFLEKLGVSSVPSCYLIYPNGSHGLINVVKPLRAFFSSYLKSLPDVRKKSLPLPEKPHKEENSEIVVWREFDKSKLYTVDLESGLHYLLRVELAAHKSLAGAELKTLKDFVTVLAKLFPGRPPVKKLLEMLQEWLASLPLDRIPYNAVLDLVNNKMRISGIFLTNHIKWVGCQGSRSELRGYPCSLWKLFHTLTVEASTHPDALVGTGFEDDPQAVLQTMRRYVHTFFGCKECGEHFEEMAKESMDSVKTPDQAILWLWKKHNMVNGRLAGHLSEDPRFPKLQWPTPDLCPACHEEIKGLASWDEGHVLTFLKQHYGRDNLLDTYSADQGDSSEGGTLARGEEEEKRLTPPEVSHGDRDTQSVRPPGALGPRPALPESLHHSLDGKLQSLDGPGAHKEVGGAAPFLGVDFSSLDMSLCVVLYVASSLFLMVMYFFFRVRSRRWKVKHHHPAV

Target	thermal stability z-score (potassium arsenate)	thermal stability z-score (lipoamide; [1])	thermal stability z-score (lipoamide; arsenate co-treatment: none)
MRPL24 (UniProt Q96A35)	-0.261	-0.411	-0.311
VWA8 (UniProt A3KMH1)	-0.561	-0.654	-0.345
MED23 (UniProt Q9ULK4)	-0.274	-0.0582	-0.269
TMEM126A (UniProt Q9H061)	0.231	0.676	0.815
DFNA5 (UniProt O60443)	0.523	0.218	0.152
UACA (UniProt Q9BZF9)	0.02	-0.163	-0.0805
CDC123 (UniProt O75794)	3.29	0.8	-0.214
NAE1 (UniProt Q13564)	-0.18	-0.406	-0.333
ZHX1 (UniProt Q9UKY1)	-0.0668	0.0297	0.122
NUP37 (UniProt Q8NFH4)	0.82	0.338	-0.0489
FAM21C (UniProt Q9Y4E1)	0.0902	0.0661	0.32
MTMR3 (UniProt Q13615)	-1.04	-0.301	-0.594
MVP (UniProt Q14764)	1.08	0.484	0.37
TTC21B (UniProt Q7Z4L5)	-0.277	-0.223	-0.505
HSD17B11 (UniProt Q8NBQ5)	0.265	0.563	0.342
ODR4 (UniProt Q5SWX8)	0.137	-0.0304	0.112
TRIP4 (UniProt Q15650)	-0.932	0.243	0.422
FAM32A (UniProt Q9Y421)	0.375	0.832	0.827
DDX5 (UniProt P17844)	-1.9	0.954	1.43
MET (UniProt P08581)	0.073	-0.338	-0.235
ATP6V1C1 (UniProt P21283)	0.132	-0.136	0.0202
USP8 (UniProt P40818)	0.561	-0.401	-0.0464
DAB2 (UniProt P98082)	1.73	0.216	0.404
CAMKK1 (UniProt Q8N5S9)	4.72	0.776	1.45

Target	thermal stability z-score (potassium arsenate)	thermal stability z-score (lipoamide; [1])	thermal stability z-score (lipoamide; arsenate co-treatment: none)
PTP4A1 (UniProt Q93096)	0.626	1.33	1.25
NSUN4 (UniProt Q96CB9)	-0.318	-0.26	0.337
RPP40 (UniProt O75818)	-1.15	0.705	-0.123
ALKBH5 (UniProt Q6P6C2)	2.96	1.79	-0.205
UniProt E9PSI1	-0.346	-0.0572	-0.622
TRAF7 (UniProt Q6Q0C0)	-1.01	0.0114	-0.686
COPS7A (UniProt Q9UBW8)	-0.0728	0.334	0.0778
KYNU (UniProt Q16719)	0.0266	0.77	0.403
FBXL16 (UniProt Q8N461)	-0.0763	-0.137	0.0698
EHBP1L1 (UniProt Q8N3D4)	-0.3	-0.423	-0.0281
ALDH3A2 (UniProt P51648)	0.0815	1.63	1.32
PSMC4 (UniProt P43686)	-0.369	-0.725	-0.18
LRWD1 (UniProt Q9UFC0)	-0.324	-0.0805	-0.0419
GDE1 (UniProt Q9NZC3)	-1.38	-0.631	-0.947
STAG1 (UniProt Q8WVM7)	-0.00763	0.115	-0.148
DHX38 (UniProt Q92620)	-0.406	-0.164	0.0335
QSOX2 (UniProt Q6ZRP7)	0.165	0.352	1.15
SUMO2 (UniProt P61956)	0.306	1.1	1.59
RABGAP1L	0.339	-0.279	-0.536
PCID2 (UniProt Q5JVF3)	0.809	-0.297	0.217
SRPRA (UniProt P08240)	0.545	-0.176	-0.208
PPIA (UniProt P62937)	-0.295	0.27	0.693
FUS (UniProt P35637)	0.635	0.844	1.27
RAD50 (UniProt Q92878)	-0.768	0.0652	-0.163

Target	thermal stability z-score (potassium arsenate)	thermal stability z-score (lipoamide; [1])	thermal stability z-score (lipoamide; arsenate co-treatment: none)
WDR26 (UniProt Q9H7D7)	-0.602	-0.326	-0.319
SELENBP1 (UniProt Q13228)	0.784	0.567	0.164
SLC39A7 (UniProt Q92504)	-0.00591	-1.65	-0.943
NUP54 (UniProt Q7Z3B4)	0.309	0.342	0.00636
UFSP2 (UniProt Q9NUQ7)	0.0966	-1.19	-0.381
API5 (UniProt Q9BZZ5)	0.0226	0.11	0.124
RMND5A (UniProt Q9H871)	0.156	0.216	0.0656
SLC9A1 (UniProt P19634)	0.274	-0.174	-0.629
ITSN2 (UniProt Q9NZM3)	-0.725	-0.803	-1.23
CTU2 (UniProt Q2VPK5)	-0.165	0.157	0.225
PRKAR2A (UniProt P13861)	0.904	0.114	0.239
CDC42BPB (UniProt Q9Y5S2)	-0.221	-0.57	-0.124
GTF3C5 (UniProt Q9Y5Q8)	-0.367	0.0669	0.0127
STK24 (UniProt Q9Y6E0)	0.0137	0.0491	-0.118
MLEC (UniProt Q14165)	0.385	-3.66	-2.94
ALG11 (UniProt Q2TAA5)	0.806	0.266	-0.15
EML2 (UniProt O95834)	-0.718	1.13	0.223
SLC9A3R2 (UniProt Q15599)	-0.923	-0.0651	0.332
PGM1 (UniProt P36871)	-0.103	-0.181	-0.205
HEATR5A (UniProt Q86XA9)	0.782	-0.931	0.157
GNB4 (UniProt Q9HAV0)	-0.65	0.329	0.753
RAB3D (UniProt O95716)	0.692	0.635	1.07
ABCC1 (UniProt P33527)	-0.579	0.473	0.0236
